The source of these data is ChEMBL document CHEMBL5113465, “Design, synthesis and evaluation of alpha lipoic acid derivatives to treat multiple sclerosis-associated central neuropathic pain” (Bioorg Med Chem, 2022).

Series [1] in a line: Octanol/water partition coefficient, log P of the compound by HPLC analysis. The class given is physicochemical.
The nature of series [2]: Stability of compound in pH 6.8 intestinal enzyme-free fluid assessed as decomposition measured within 20 mins by HPLC analysis. The class given is ADME. The conditions noted are these: buffer, pH 6.8, 20 min.
A short description of series [3]: Aqueous solubility of compound. The class given is physicochemical.
Series [4] can be described thus: Stability of compound in pH 1.5 gastric enzyme-free fluid assessed as decomposition measured within 20 mins by HPLC analysis. It is filed as ADME. As to conditions: buffer, pH 1.5, 20 min; call rule not given here.
Series [5] in a line: Half life in pH 1.5 gastric enzyme-free fluid assessed as parent compound remaining neutralized with 0.1 N triethylamine solution at 20 mins interval for 3 hrs by HPLC analysis. The class given is ADME.
Series [6] in a line: Half life in pH 6.8 intestinal enzyme-free fluid assessed as parent compound remaining neutralized with 0.1 N triethylamine solution at 20 mins interval for 3 hrs by HPLC analysis. The class given is ADME.
Series [7] can be described thus: Stability in mouse plasma at 1 to 500 ppm measured within 1 min by LC-MS analysis. It is filed as ADME, cell-free. As to conditions: dose 1-500 ppm.
Series [8] in a line: Apparent permeability in human Caco-2 cells measured after 15 mins by LC-MS analysis. The class given is ADME, cell-based.
The nature of series [9]: Half life in mouse plasma at 0.1 to 50 ppm by LC-MS analysis. It is filed as ADME, cell-free. As to conditions: dose 0.1-50 ppm.
Where [10] appears, read: aqueous medium, read-out: solubility.

Regarding `O=C(CCCC[C@@H]1CCSS1)OCCN1CCOCC1`, the logP in series [1] worked out at 2.64. The Drug degradation result in [2] and in [4] was “Active” each time. In series [3] (setting [10]), the solubility is below 10 µM.
Turning to `O=C(CCCC[C@@H]1CCSS1)OC[C@H]1OC(O)[C@H](O)[C@@H](O)[C@@H]1O` (some centres undefined), the lipophilicity (logP) in series [1] is 0.94. The solubility in [3] (setting [10]) was below 2000 µM.
As to `CN1CCN(CCOC(=O)CCCC[C@@H]2CCSS2)CC1`, the half-life in [5] and in series [6] was above 2 h throughout.
Regarding `O=C(CCCC[C@@H]1CCSS1)OCCOCCOCCO`, the half-life in series [5] and in series [6] was above 2 h each time.
Regarding `Cl.O=C(CCCC[C@@H]1CCSS1)OCCN1CCOCC1`, in [3] (buffer), the solubility result was “Soluble”. For the same compound, in series [7], the Stability result was “Unstable”.
Turning to `Cc1oc(=O)oc1COC(=O)CCCC[C@@H]1CCSS1`, the apparent permeability coefficient (Papp) at 0.25 h in series [8] was determined as 15.9 ×10⁻⁶ cm/s. In addition, the half-life in [5] and in [6] was above 2 h each time.
In series [1], `O=C(CCCC[C@@H]1CCSS1)OCc1cc(=O)c(O)co1` returned a logP of 2.03. Also, the half-life in series [5] and in [6] was above 2 h throughout. Also, the solubility in series [3] (setting [10]) was below 10 µM.
In the case of `O=C(CCCC[C@@H]1CCSS1)OC(CO)CO`, the half-life in series [5] and in [6] was above 2 h in each case.
Consider `O=C(CCCC[C@@H]1CCSS1)O[C@H]1[C@H](O)[C@@H](CO)OC(O)[C@@H]1O` (some centres undefined), for which the lipophilicity (logP) in [1] was found to be 0.31. The half-life in series [9] is 1.5 h. In addition, in [3] (setting [10]), the solubility is above 10000 µM.
